From article PMC7066271 (Clinical and Experimental Nephrology, 2020)
One block for each compound: values may come before it.

How the values were obtained:
healthy adult males [1] = assay: Safety evaluation: adverse events in healthy adult males; assay type: in vivo, human; settings: for Adverse events reported, all: by treatment period, causal relationship with study drugs ruled out; for Peritonsillar abscess, incidence / Peritonsillar abscess, number of events / Pharyngitis, incidence / Pharyngitis, number of events / Urine beta 2 microglobulin increased, incidence / Urine beta 2 microglobulin increased, number of events: healthy adult males, n = 12 for each drug alone, n = 11 for co-administration
Description: (§1) This was a single-center, open-label, two-period, sequential-group, add-on, drug–drug interaction study in healthy adult males conducted at a Japanese clinical pharmacology study center. Following a screening period ranging from 29 days before, to the day before the study drug administration (Day -1), eligible subjects were admitted to the study site on Day-1, received a single 4 mg oral dose of dotinurad in a fed state, and were discharged 48 h postdose. […] They underwent a follow-up examination between six and ten days after co-administration for safety evaluation.
Adverse events (AEs), a measure used for safety evaluation, were coded by preferred term using the Medical Dictionary for Regulatory Activities (MedDRA) version 20.1 (Japanese Maintenance Organization, Tokyo, Japan) and tabulated. The investigator observed/examined/assessed AEs, subjective symptoms and objective findings, vital signs, electrocardiography, and laboratory test values.
The safety analysis population included subjects who received at least one dose of dotinurad and who had data for safety evaluation.

[2] = Plasma pharmacokinetics of dotinurad, single 4 mg oral dose with and without oxaprozin, in healthy adult males; assay type: in vivo, human
Description: This was a single-center, open-label, two-period, sequential-group, add-on, drug-drug interaction study in healthy adult males conducted at a Japanese clinical pharmacology study center. Following a screening period ranging from 29 days before, to the day before the study drug administration (Day -1), eligible subjects were admitted to the study site on Day-1, received a single 4 mg oral dose of dotinurad in a fed state, and were discharged 48 h postdose. […] They underwent a follow-up examination between six and ten days after co-administration for safety evaluation. […] A blood sample was drawn, in the amount of 5 mL at each time point except for 10 mL at 4 h after drug administration, into a heparin-containing blood collection tube and centrifuged at 3000 rpm for 10 min at 4 °C. A plasma sample obtained at each time point was then stored at - 20 °C before shipping in a chilled condition with dry ice to Sekisui Medical Co., Ltd. (Ibaraki, Japan) for determination of plasma drug concentrations. […] Ultrafiltered plasma samples were used to determine unbound plasma concentrations of dotinurad by a validated LC-MS/MS method (LC:LC-20AD system, SHIMADZU. MS/MS: API4000, SCIEX). The LLOQ was 0.1 ng/mL.

[3] = system: ATP-binding cassette subfamily G member 2 (ABCG2); set-up: method as in PMID 31371478, PMID 31754883; settings: compared to probenecid, benzbromarone, and lesinurad; cited from earlier work
human plasma protein = system: human plasma protein; set-up: method as in earlier work; settings: cited from earlier work
[4] = Urinary excretion (fe) of dotinurad metabolites with and without oxaprozin in healthy adult males; assay type: in vivo, human
Description: as §1
After the pH of the urine sample collected after each time interval was adjusted to ≤ 7.0, the sample was stored at – 20 °C before shipping in a chilled condition with dry ice to Fuji Yakuhin Co., Ltd. (Saitama, Japan) for determination of urinary concentrations of dotinurad’s metabolites.
Urinary concentrations of metabolites (glucuronate conjugates and sulfate conjugates) were determined by a validated LC-MS/MS method (LC: Nexera X2 and Prominence, SHIMADZU. MS/MS: Triple Quad 4500, SCIEX). The LLOQ was 10 ng/mL for both metabolites.

OAT3 = system: OAT3; set-up: method as in PMID 31371478, PMID 31754883; settings: compared to probenecid, benzbromarone, and lesinurad; cited from earlier work
[5] = Unbound fraction of dotinurad in plasma at the time of Cmax (ultrafiltered plasma, LC-MS/MS); assay type: in vivo, human
Description: (§2) Ultrafiltered plasma samples were used to determine unbound plasma concentrations of dotinurad by a validated LC–MS/MS method (LC:LC-20AD system, SHIMADZU. MS/MS: API4000, SCIEX). The LLOQ was 0.1 ng/mL.

[6] = system: urate transporter 1 (URAT1); set-up: method as in PMID 31371478, PMID 31754883; settings: cited from earlier work
[7] = system: organic anion transporter (OAT) 1; set-up: method as in PMID 31371478, PMID 31754883; settings: compared to probenecid, benzbromarone, and lesinurad; cited from earlier work
[8] = system: CYPs, UGTs, sulfotransferases, and drug transporters; set-up: method as in earlier work; settings: at clinical doses, several in vitro studies; cited from earlier work
healthy adult males [9] = assay: Estimated glomerular filtration rate 24 h after dosing; assay type: in vivo, human
[10] = Plasma oxaprozin concentrations before and 24 h after co-administration (steady-state check); assay type: in vivo; settings: male, human, oral, 24 h after co-administration with dotinurad, n = 11
Description: A blood sample was drawn, in the amount of 5 mL at each time point except for 10 mL at 4 h after drug administration, into a heparin-containing blood collection tube and centrifuged at 3000 rpm for 10 min at 4 °C. A plasma sample obtained at each time point was then stored at – 20 °C before shipping in a chilled condition with dry ice to Sekisui Medical Co., Ltd. (Ibaraki, Japan) for determination of plasma drug concentrations.
as §2

[11] = [dotinurad and oxaprozin]/[dotinurad alone], n = 11
[12] = dotinurad 4 mg co-administered with oxaprozin 600 mg, fed, n = 11
[13] = dotinurad alone, single 4 mg oral dose, fed, n = 12
[14] = male, human, plasma, dotinurad alone, single 4 mg oral dose, fed, n = 12

- AUC0–inf, geometric mean ratio (90% CI) [2, 11]: 1.165 (1.114–1.219)
- CLtot/F, geometric mean ratio (90% CI) [2, 11]: 0.858 (0.820–0.898)
- Cmax, geometric mean ratio (90% CI) [2, 11]: 0.982 (0.945–1.021)
- T1/2, geometric mean ratio (90% CI) [2, 11]: 1.205 (1.176–1.236)
- Tmax, geometric mean ratio (90% CI) [2, 11]: 1.000 (0.844–1.185)
- Vd/F, geometric mean ratio (90% CI) [2, 11]: 1.035 (0.999–1.071)
- Increase in AUC0–inf of dotinurad ([2]; co-administration with oxaprozin compared with dotinurad alone): 16.5%
- AUC0–inf, mean [2, 12]: 4487 ng・h/mL
- CLtot/F, mean [2, 12]: 0.901 L/h
- AUC0–inf, mean [2, 13]: 3846 ng・h/mL
- CLtot/F, mean [2, 13]: 1.065 L/h
- Cmax [2, 14]: 0.271 µg/mL
- Tmax [2, 14]: 3.67 h
- Vd/F [2, 14]: 14.9 L
- half-life ([2]; male, human, plasma, dotinurad alone, single 4 mg oral dose, fed, n = 12, read-out: T1/2, mean (converted)): 9.85 h
- Estimated increase in dotinurad exposure when co-administered with oxaprozin ([4]; assuming absence of compensatory enhancement of other metabolic pathways): approximately 13%
- Proportion of glucuronidation inhibited by co-administered oxaprozin in terms of the entire metabolism of dotinurad ([4]; calculated from fe of glucuronate conjugates): 13.2%
- Unbound fraction in plasma at Cmax, geometric mean ratio (90% CI) [5, 11]: 1.615 (1.454–1.794)
- fraction unbound ([5]; male, human, plasma, oral, dotinurad alone, 4 mg, n = 12): 0.00534
- Estimated glomerular filtration rate (eGFR) (mean ± SD) (healthy adult males [9]; 24 h after administration of dotinurad alone, n = 12): 100.9 ± 13.0 mL/min/1.73 m^2
- Estimated glomerular filtration rate (eGFR) (mean ± SD) (healthy adult males [9]; 24 h after co-administration with oxaprozin, n = 11): 93.3 ± 13.0 mL/min/1.73 m^2
SMILES: O=C(c1cc(Cl)c(O)c(Cl)c1)N1CS(=O)(=O)c2ccccc21 [Dotinurad, dotinurad]
- Adverse events reported, all (healthy adult males [1]): Two events occurred in two subjects
- Peritonsillar abscess, incidence (healthy adult males [1]): 0.0%
- Peritonsillar abscess, number of events (healthy adult males [1]): 0
- Pharyngitis, incidence (healthy adult males [1]): 8.3%
- Pharyngitis, number of events (healthy adult males [1]): 1
- Urine beta 2 microglobulin increased, incidence (healthy adult males [1]): 8.3%
- Urine beta 2 microglobulin increased, number of events (healthy adult males [1]): 1
- Effect on ABCG2 [3]: minimal effect
- Effect on plasma protein binding rates of potentially co-administered drugs (human plasma protein; at clinical doses, in vitro): no effects
- Effect on OAT3 (OAT3): minimal effect
- URAT1 inhibition [6]: potent URAT1 inhibitor
- Effect on OAT1 [7]: minimal effect
- Effect on CYPs, UGTs, sulfotransferases, and drug transporters [8]: no effects

- concentration at 24 h [10]: 102 ± 10.4 µg/mL
SMILES: O=C(O)CCc1nc(-c2ccccc2)c(-c2ccccc2)o1 [Oxaprozin, oxaprozin, reference compound]
- Adverse events reported, all (healthy adult males [1]): one event occurred in one subject
- Peritonsillar abscess, incidence (healthy adult males [1]): 8.3%
- Peritonsillar abscess, number of events (healthy adult males [1]): 1
- Pharyngitis, incidence (healthy adult males [1]): 0.0%
- Pharyngitis, number of events (healthy adult males [1]): 0
- Urine beta 2 microglobulin increased, incidence (healthy adult males [1]): 0.0%
- Urine beta 2 microglobulin increased, number of events (healthy adult males [1]): 0
- Effect on plasma protein binding rate of dotinurad (human plasma protein; human plasma, ultrafiltration method): lower the plasma protein binding rate of dotinurad
